According to PMC10215143, “D- and N-Methyl Amino Acids for Modulating the Therapeutic Properties of Antimicrobial Peptides and Lipopeptides” (Antibiotics, 2023):
In brackets after ≈: the same amount, converted by molar mass. Several values for one entry are separate records, joined by “and”; a condition that tells them apart may be missing. Equal values may be shown once. Read-outs that look alike come from different tables or passages of the source. Where a SMILES comes first, the peptide text is derived from it. [ ]: non-standard residue; d: D form. The star is where a group is joined. NMeF = CN[C@@H](Cc1ccccc1)C(=O)O; NMeK = CN[C@@H](CCCCN)C(=O)O; Decanoyl = CCCCCCCCCC(=O)*

What was measured:
C. tropicalis DBFIQ 3 = type: cell-based, Candida tropicalis; settings: DBFIQ 3, 24 h
Experimental: (§1) Each inoculum was taken and the cellular concentration was adjusted to 2 × 10^3 CFU/mL in Sabouraud Dextrose Broth (SDB) (Biokar Diagnostics, Cedex, France). Next, 50 µL of these inocula was added to 50 µL of peptide solution in serial 2-fold dilutions. […] […] The test was conducted in triplicate.

HeLa cells = settings: 24 h
Experimental: We assessed the cytotoxicity of the compounds synthesized using HeLa cells.
The 3–4,5-dimethylthiazol-2,5-biphenyl tetrazolium bromide (MTT) cell viability assay was used to assess the cytotoxic activity of synthetic compounds against the human HeLa line. HeLa cells were seeded in 96-well plates at 1 × 10^5 cells/well, in which the peptide solution was added at different concentrations (3.125–400 μM) for 24 h of incubation. Next, MTT reagent (Sigma-Aldrich, St. Louis, MO, USA) was added, and the cells were incubated for 2 h. Then, 100 μL of dimethylsulfoxide (DMSO) was added to each well to dissolve formazan crystals, and the plates were read at 595 nm.

C. albicans PEEC 2 = type: cell-based, Candida albicans; settings: PEEC 2, 24 h
Experimental: as §1

S. aureus ATCC 25923 = type: cell-based, Staphylococcus aureus; settings: ATCC 25923, 24 h
Experimental: (§2) The test was conducted in triplicate.

P. aeruginosa ATCC 27853 = type: cell-based, Pseudomonas aeruginosa; settings: ATCC 27853, 24 h
Experimental: as §2

[1] = test system: S. aureus RM * SA1 (Methicillin-resistant Staphylococcus aureus); settings: S. aureus RM * SA1 (MRSA)
E. coli ATCC 35218 = type: cell-based, Escherichia coli; settings: ATCC 35218, 24 h
Experimental: as §2

Human erythrocytes = assay: Hemolysis assay; type: cell-based; settings: human erythrocytes 0.4% (v/v), 37 °C, 60 min, 6.25 to 400 µM
Experimental: Hemolytic activity was determined using red blood cells and the hemoglobin released was measured at 405 nm. The percentage of hemolysis corresponding to the synthetic compounds is shown in Figure 1 while the HC50 values are provided in Table 3. […] Substitutions by N-methyl and D-amino acids reduced the hemolytic activity of the peptides and lipopeptides. […] For all the peptides and most of the lipopeptides, the HC50 values exceeded 400 μM. Indeed, the HC50 values were lower only for C10:0-A2(9-NMeLys) and C10:0-A2, which were around 300 and 200 μM, respectively.
Erythrocyte lysis was determined using the following previously optimized protocols. Human erythrocytes from a healthy voluntary donor were isolated by centrifugation (3000 rpm for 10 min) after washing three times with Physiological Solution (PS). Erythrocyte solutions were prepared at a concentration of 0.4% (v/v) in PS. Test tubes containing 200 µL of erythrocyte solution were incubated at 37 °C for 60 min with 200 µL of peptide solution at concentrations ranging from 6.25 to 400 µM. After centrifugation at 3000 rpm for 5 min, supernatant absorbance was measured at 405 nm. Lysis induced by 1% Triton X-100 was taken as a 100% reference value.

Gram (−) bacteria = settings: for MIC Average Bacteria Gram (−): average over Gram (−) strains; for TI Bacteria Gram (−), HC50/MIC average: first value of the cell, a single value holds for HC50 and IC50 (400 µM used); for TI Bacteria Gram (−), IC50/MIC average: second value of the cell, HeLa IC50 based
Experimental: (§3) The MIC against bacterial strains was determined by the modified broth microtiter dilution method, following the procedures proposed by R.E.W. Hancock Laboratory for testing antimicrobial peptides. The target strains Escherichia coli ATCC 35218, Pseudomonas aeruginosa ATCC 27853, Enterococcus faecalis ATCC 29212, and Staphylococcus aureus ATCC 25923 belong to the American Type Culture Collection (ATCC). The Methicillin-Resistant Staphylococcus aureus BSF FBCB1313 strain (MRSA) was provided by the Clinical Bacteriology Section of FBCB-UNL. All strains were activated by culture for 24 h at 37 °C in Mueller-Hinton Broth (MHB) (Biokar Diagnostics, Cedex, France). Each inoculum was taken and adjusted to a cellular concentration of 5 × 10^5 colony-forming units (CFU)/mL in diluted MHB. All the peptides were dissolved in bovine serum albumin buffer with the addition of 0.01% acetic acid; 100 µL of each inoculum was added to 11 µL of peptide solution in serial 2-fold dilutions and were incubated for 18–24 h at 37 °C. The MIC was the lowest peptide concentration that inhibited visible growth of each bacterial strain. The test was conducted in triplicate.
(§4) The TI is defined as the relationship between the concentration that caused 50% of hemolysis (HC50) or a 50% reduction in HeLa cell viability and the MIC. Thus, higher TI values indicate greater antimicrobial specificity. […] The average MIC for each peptide against different microorganism groups was used to calculate the TI value.

Gram (+) bacteria = settings: for TI Bacteria Gram (+), HC50/MIC average: first value of the cell, a single value holds for HC50 and IC50 (400 µM used); for TI Bacteria Gram (+), IC50/MIC average: second value of the cell, HeLa IC50 based; for MIC Average Bacteria Gram (+): average over Gram (+) strains
Experimental: as §3, §4

E. faecalis ATCC 29212 = type: cell-based, Enterococcus faecalis; settings: ATCC 29212, 24 h
Experimental: as §2

Yeast = settings: for MIC Average Yeast: 24 h; for TI Yeast, HC50/MIC average: first value of the cell, a single value holds for HC50 and IC50 (400 µM used); for TI Yeast, IC50/MIC average: second value of the cell, HeLa IC50 based
Experimental: Each inoculum was taken and the cellular concentration was adjusted to 2 × 10^3 CFU/mL in Sabouraud Dextrose Broth (SDB) (Biokar Diagnostics, Cedex, France). Next, 50 µL of these inocula was added to 50 µL of peptide solution in serial 2-fold dilutions. […] The MIC was considered the lowest peptide concentration that inhibited visible growth of each yeast strain. The test was conducted in triplicate.
as §4

[2] = Critical micelle concentration by conductimetry in Milli-Q water; type: physicochemical; settings: 25 °C
Experimental: On the other hand, acylation confers that the peptide has capacity to self-assemble into nanostructures, resulting in a surfactant-like structure, which may affect the extent of peptide insertion and disruption of bacterial membrane integrity. In this work, the CMC of the lipopeptides was determined by conductimetry in Milli-Q water. All the lipopeptides adopted a micellar assembly with CMC values ranging from 2.0 to 5.7 mM (Table 1). […] This effect appeared to be more important when substitution by an N-methyl amino acid was performed on amino acids located on the non-polar face of the amphipathic helix (CMC values of C10:0-A2(8-NMePhe) = 2.01 mM). For all the lipopeptides, the CMC values remained above the MIC values, which could indicate that these molecules interact with the cell membrane as monomers and, consequently, that this property would not be necessary for antimicrobial activity. This notion is in concordance with reports in the literature on short cationic lipopeptides.
A lipopeptide solution was prepared in Milli Q water, and the specific conductivity of each lipopeptide solution, in a concentration ranging from 0.06 to 18 mg/mL, was measured using a drop conductivity meter (HORIBA, Kyoto, Japan), at 25 °C. Conductivity values were plotted vs. lipopeptide concentration (mS × cm^−1 vs. mg/mL), and the CMC was graphically determined.

Compound | MIC (C. tropicalis DBFIQ 3) [µM] | IC50 (HeLa cells) [µM] | IC50 (HeLa cells; read-out: IC50 ± SD, HeLa cells, MTT, 3.125–400 μM) | MIC (C. albicans PEEC 2) [µM] | MIC (S. aureus ATCC 25923) [µM] | MIC (P. aeruginosa ATCC 27853) [µM] | MIC [1] [µM] | MIC (E. coli ATCC 35218) [µM] | HC50 ± SD (Human erythrocytes) [µM] | MIC Average Bacteria Gram (−) (Gram (−) bacteria) [µM] | TI Bacteria Gram (−), HC50/MIC average (Gram (−) bacteria) | TI Bacteria Gram (−), IC50/MIC average (Gram (−) bacteria) | TI Bacteria Gram (+), HC50/MIC average (Gram (+) bacteria) | TI Bacteria Gram (+), IC50/MIC average (Gram (+) bacteria) | MIC (E. faecalis ATCC 29212) [µM] | MIC Average Yeast (Yeast) [µM] | TI Yeast, HC50/MIC average (Yeast) | TI Yeast, IC50/MIC average (Yeast) | MIC Average Bacteria Gram (+) (Gram (+) bacteria) [µM] | CMC [2] [mM]
CC(C)C[C@H](NC(=O)[C@H](CCCCN)NC(=O)[C@H](CCCCN)NC(=O)[C@H](Cc1ccccc1)N(C)C(=O)[C@H](CC(C)C)NC(=O)[C@H](CCCCN)NC(=O)[C@H](CCCCN)NC(=O)[C@H](Cc1ccccc1)N(C)C(=O)[C@H](CC(C)C)NC(=O)[C@@H](N)CCCCN)C(=O)N[C@@H](Cc1ccccc1)C(=O)N[C@@H](CCCCN)C(N)=O [TA4(3,7-NMePhe), KL(NMeF)KKL(NMeF)KKLFK-NH2] (H-KL[NMeF]KKL[NMeF]KKLFK-NH2; N-terminus assumed) | 80.2 (≈ 128 µg/mL) | 86.6 ± 7.35 | ~86 µM and 86 µM | 80.2 (≈ 128 µg/mL) | 5.0 (≈ 7.98 µg/mL) | 1.2 (≈ 1.91 µg/mL) | 10.0 (≈ 16 µg/mL) | 5.0 (≈ 7.98 µg/mL) | >400 | 3.1 (≈ 4.94 µg/mL) | 129.0 | 27.9 | 14.1 | 3.1 | 40.0 (≈ 63.8 µg/mL) | 80.2 (≈ 128 µg/mL) | 5.0 | 1.1 | – | –
CCCCCCCCCC(=O)N[C@H](C(=O)N[C@@H](CCCCN)C(=O)N[C@@H](CCC(N)=O)C(=O)N[C@H](C(=O)N[C@@H](CCCCN)C(=O)N(C)[C@@H](CCCCN)C(=O)N[C@@H](CC(C)C)C(=O)N[C@@H](Cc1ccccc1)C(=O)N[C@@H](CCCCN)C(=O)N[C@@H](CCCCN)C(N)=O)C(C)C)[C@@H](C)CC [C10:0-A2(6-NMeLys), C10:0-IKQVK(NMe-K)LFKK-NH2] (Decanoyl-IKQVK[NMeK]LFKK-NH2) | 89.7 (≈ 128 µg/mL) | 400 ± 29 | – | 44.9 (≈ 64.1 µg/mL) | 1.4 (≈ 2 µg/mL) | 0.7 (≈ 0.999 µg/mL) | 5.6 (≈ 7.99 µg/mL) | 1.4 (≈ 2 µg/mL) | >400 | 1.1 (≈ 1.57 µg/mL) | 363.6 | – | 95.2 | – | 5.6 (≈ 7.99 µg/mL) | 67.3 (≈ 96 µg/mL) | 5.9 | – | 4.2 (≈ 5.99 µg/mL) | 3.63
CCCCCCCCCC(=O)N[C@H](C(=O)N[C@@H](CCCCN)C(=O)N[C@@H](CCC(N)=O)C(=O)N[C@H](C(=O)N[C@@H](CCCCN)C(=O)N[C@@H](CCCCN)C(=O)N[C@@H](CC(C)C)C(=O)N[C@@H](Cc1ccccc1)C(=O)N(C)[C@@H](CCCCN)C(=O)N[C@@H](CCCCN)C(N)=O)C(C)C)[C@@H](C)CC [C10:0-A2(9-NMeLys), C10:0-IKQVKKLF(NMe-K)K-NH2] (Decanoyl-IKQVKKLF[NMeK]K-NH2) | 179.5 (≈ 256 µg/mL) | > 400 | – | 89.7 (≈ 128 µg/mL) | 2.8 (≈ 4 µg/mL) | 0.7 (≈ 0.999 µg/mL) | 2.8 (≈ 4 µg/mL) | 2.8 (≈ 4 µg/mL) | – | 1.8 (≈ 2.57 µg/mL) | 165.8 | 222.2 | 80.7 | 108.1 | 5.6 (≈ 7.99 µg/mL) | 134.6 (≈ 192 µg/mL) | 2.2 | 3.0 | 3.7 (≈ 5.28 µg/mL) | 3.90
CCCCCCCCCC(=O)N[C@H](C(=O)N[C@@H](CCCCN)C(=O)N[C@@H](CCC(N)=O)C(=O)N[C@H](C(=O)N(C)[C@@H](CCCCN)C(=O)N[C@@H](CCCCN)C(=O)N[C@@H](CC(C)C)C(=O)N[C@@H](Cc1ccccc1)C(=O)N[C@@H](CCCCN)C(=O)N[C@@H](CCCCN)C(N)=O)C(C)C)[C@@H](C)CC [C10:0-A2(5-NMeLys), C10:0-IKQV(NMe-K)KLFKK-NH2] (Decanoyl-IKQV[NMeK]KLFKK-NH2) | 179.5 (≈ 256 µg/mL) | > 400 | – | 179.5 (≈ 256 µg/mL) | 2.8 (≈ 4 µg/mL) | 5.6 (≈ 7.99 µg/mL) | 5.6 (≈ 7.99 µg/mL) | 2.8 (≈ 4 µg/mL) | >400 | 4.2 (≈ 5.99 µg/mL) | 95.2 | – | 61.5 | – | 11.2 (≈ 16 µg/mL) | 179.5 (≈ 256 µg/mL) | 2.2 | – | 6.5 (≈ 9.28 µg/mL) | 3.73
CCCCCCCCCC(=O)N[C@H](C(=O)N[C@@H](CCCCN)C(=O)N[C@@H](CCC(N)=O)C(=O)N[C@H](C(=O)N[C@@H](CCCCN)C(=O)N[C@@H](CCCCN)C(=O)N[C@@H](CC(C)C)C(=O)N(C)[C@@H](Cc1ccccc1)C(=O)N[C@@H](CCCCN)C(=O)N[C@@H](CCCCN)C(N)=O)C(C)C)[C@@H](C)CC [C10:0-A2(8-NMePhe), C10:0-IKQVKKL(NMe-F)KK-NH2] (Decanoyl-IKQVKKL[NMeF]KK-NH2) | 179.5 (≈ 256 µg/mL) | > 400 | – | 179.5 (≈ 256 µg/mL) | 2.8 (≈ 4 µg/mL) | 5.6 (≈ 7.99 µg/mL) | 5.6 (≈ 7.99 µg/mL) | 11.2 (≈ 16 µg/mL) | >400 | 8.4 (≈ 12 µg/mL) | 47.6 | – | 61.5 | – | 11.2 (≈ 16 µg/mL) | 179.5 (≈ 256 µg/mL) | 2.2 | – | 6.5 (≈ 9.28 µg/mL) | 2.01
